Several values for one entry are separate records, joined by “and”; a condition that tells them apart may be missing. Equal values may be shown once.
Target: catD / beta-secretase (BACE)
Experiment: CatD/BACE selectivity (ratio of IC50 values)
Format: biochemical
Settings: each value is an average of four experimental runs; multiple values = more than one experiment
Method: Selectivity was calculated as a ratio of inhibition (IC50) values in which the inhibition of beta-secretase was compared to the inhibition of other aspartyl proteases.
In the following examples, each value is an average of four experimental runs and multiple values for one compound indicate that more than one experiment was conducted.

| Compound | IC50 catD/IC50 BACE |
| --- | --- |
| CNC1CCC(NCC(O)C(Cc2cc(F)cc(F)c2)NC(C)=O)(c2cccc(C(C)(C)C)c2)CC1 (single isomer, unassigned) [196A-28 Diastereomer B, N-(4-(1-(3-tert-butylphenyl)-4-(methylamino)cyclohexylamino)-1-(3,5-difluorophenyl)-3-hydroxybutan-2-yl)acetamide] | >3.9 |
| CC(=O)NC(Cc1cc(F)cc(F)c1)C(O)CNC1(c2cccc(C(C)(C)C)c2)CCC(O)(CO)CC1 (single isomer, unassigned) [196A-36 Diastereomer B, N-[3-[1-(3-tert-Butyl-phenyl)-4-hydroxy-4-hydroxymethyl-cyclohexylamino]-1-(3,5-difluoro-benzyl)-2-hydroxy-propyl]-acetamide] | >5.3 |
| CNC(=O)NC1CCC(NCC(O)C(Cc2cc(F)cc(F)c2)NC(C)=O)(c2cccc(C(C)(C)C)c2)CC1 (single isomer, unassigned) [196A-46 Diastereomer B, 1-(4-(3-acetamido-4-(3,5-difluorophenyl)-2-hydroxybutylamino)-4-(3-tert-butylphenyl)cyclohexyl)-3-methylurea] | >1.3 |
| CC(=O)NC(Cc1cc(F)cc(F)c1)C(O)CNC1(c2cccc(C(C)(C)C)c2)CCCN(C)C1 (stereo not shown) [Example 196A-40, N-(4-(3-(3-tert-butylphenyl)-1-methylpiperidin-3-ylamino)-1-(3,5-difluorophenyl)-3-hydroxybutan-2-yl)acetamide] | >2,0 |
| CCc1cccc(C2(NCC(O)C(Cc3cc(F)cc(F)c3)NC(C)=O)CCOCC2)c1 (stereo not shown) [Example 196A-1, N-{1-(3,5-Difluoro-benzyl)-3-[4-(3-ethyl-phenyl)-tetrahydro-pyran-4-ylamino]-2-hydroxy-propyl}-acetamide] | 3.0 and 2.3 and 2.7 |
| CC(=O)NC(Cc1cc(F)cc(F)c1)C(O)CNC1(c2cccc(C(C)(C)C)c2)CCC(N)CC1 (single isomer, unassigned) [196A-29 Diastereomer A, N-(4-(1-(3-tert-butylphenyl)-4-aminocyclohexylamino)-1-(3,5-difluorophenyl)-3-hydroxybutan-2-yl)acetamide] | >8.4 |
| COC(=O)NC1CCC(NCC(O)C(Cc2cc(F)cc(F)c2)NC(C)=O)(c2cccc(C(C)(C)C)c2)CC1 (single isomer, unassigned) [196A-38 Diastereomer B, methyl 4-(3-acetamido-4-(3,5-difluorophenyl)-2-hydroxybutylamino)-4-(3-tert-butylphenyl)cyclohexylcarbamate] | 2.6 and 2.0 and 2.3 |
| CC(=O)NC(Cc1cc(F)cc(F)c1)C(O)CNC1(c2cccc(C(C)C)c2)CCC2(CC1)OCCO2 (stereo not shown) [Example 196A-6, N-{1-(3,5-Difluoro-benzyl)-2-hydroxy-3-[8-(3-isopropyl-phenyl)-1,4-dioxa-spiro[4.5]dec-8-ylamino]-propyl}-acetamide] | 11.4 |
| CC(=O)NC(Cc1ccc(O)cc1)C(O)CNC1(c2cccc(C(C)C)c2)CCCCC1 (stereo not shown) [Example 196A-2, N-{2-Hydroxy-1-(4-hydroxy-benzyl)-3-[1-(3-isopropyl-phenyl)-cyclohexylamino]-propyl}-acetamide] | 3.6 and 4.1 and 3.9 |
| CCS(=O)(=O)N1CCC(NCC(O)C(Cc2cc(F)cc(F)c2)NC(C)=O)(c2cccc(C(C)(C)C)c2)CC1 (stereo not shown) [Example 196A-15, N-[3-[4-(3-tert-Butyl-phenyl)-1-ethanesulfonyl-piperidin-4-ylamino]-1-(3,5-difluoro-benzyl)-2-hydroxy-propyl]-acetamide] | 13.1 |
| CONC1CCC(NCC(O)C(Cc2cc(F)cc(F)c2)NC(C)=O)(c2cccc(C(C)(C)C)c2)CC1 (single isomer, unassigned) [196A-20 Diastereomer A, N-(4-(1-(3-tert-butylphenyl)-4-(methoxyamino)cyclohexylamino)-1-(3,5-difluorophenyl)-3-hydroxybutan-2-yl)acetamide] | 5.0 |
| CONC1CCC(NCC(O)C(Cc2cc(F)cc(F)c2)NC(C)=O)(c2cccc(C(C)(C)C)c2)CC1 (single isomer, unassigned) [196A-21 Diastereomer B, N-(4-(1-(3-tert-butylphenyl)-4-(methoxyamino)cyclohexylamino)-1-(3,5-difluorophenyl)-3-hydroxybutan-2-yl)acetamide] | 12.3 |
| CC(=O)NC(Cc1cc(F)cc(F)c1)C(O)CNC1(c2cccc(C(C)C)c2)CCN(S(C)(=O)=O)CC1 (stereo not shown) [Example 196A-11, N-{1-(3,5-Difluoro-benzyl)-2-hydroxy-3-[4-(3-isopropyl-phenyl)-1-methanesulfonyl-piperidin-4-ylamino]-propyl}-acetamide] | 12.7 |
| CC(=O)NC(Cc1cc(F)cc(F)c1)C(O)CNC1(c2cccc(C(C)C)c2)CCN(C(C)=O)CC1 (stereo not shown) [Example 196A-10, N-[3-[1-Acetyl-4-(3-isopropyl-phenyl)-piperidin-4-ylamino]-1-(3,5-difluoro-benzyl)-2-hydroxy-propyl]-acetamide] | 3.2 |
| CC(=O)NC(Cc1cc(F)cc(F)c1)C(O)CNC1(c2cccc(C(C)C)c2)CCS(=O)(=O)CC1 (stereo not shown) [Example 196A-9, N-{1-(3,5-Difluoro-benzyl)-2-hydroxy-3-[4-(3-isopropyl-phenyl)-1,1-dioxo-hexahydro-1l6-thiopyran-4-ylamino]-propyl}-acetamide] | 1.4 |
| CC(=O)NC(Cc1cc(F)cc(F)c1)C(O)CNC1(c2cccc(C(C)C)c2)CCN(C=O)CC1 (stereo not shown) [Example 196A-13, N-{1-(3,5-Difluoro-benzyl)-3-[1-formyl-4-(3-isopropyl-phenyl)-piperidin-4-ylamino]-2-hydroxy-propyl}-acetamide] | 33.5 |
| CC(=O)NC(Cc1cc(F)cc(F)c1)C(O)CNC1(c2cccc(C(C)(C)C)c2)CCC(C#N)CC1 (stereo not shown) [Example 196A-48, N-[3-[1-(3-tert-Butyl-phenyl)-4-cyano-cyclohexylamino]-1-(3,5-difluoro-benzyl)-2-hydroxy-propyl]-acetamide] | 1.7 |
| CNC(=O)NC1CCC(NCC(O)C(Cc2cc(F)cc(F)c2)NC(C)=O)(c2cccc(C(C)(C)C)c2)CC1 (single isomer, unassigned) [196A-45 Diastereomer A, 1-(4-(3-acetamido-4-(3,5-difluorophenyl)-2-hydroxybutylamino)-4-(3-tert-butylphenyl)cyolohexyl)-3-methylurea] | >3.5 |
| CC(=O)NC(Cc1cc(F)cc(F)c1)C(O)CNC1(c2cccc(C(C)(C)C)c2)CCC(N(O)C(C)=O)CC1 (single isomer, unassigned) [196A-39 Diastereomer A] | 9.6 |
| CC(=O)NC(Cc1cc(F)cc(F)c1)C(O)CNC1(c2cccc(-c3ccsc3)c2)CCC(=O)CC1 (stereo not shown) [Example 196A-49, N-{1-(3,5-Difluoro-benzyl)-2-hydroxy-3-[4-oxo-1-(3-thiophen-3-yl-phenyl)-cyclohexylamino]-propyl}-acetamide] | 4.4 |
| CC(=O)NC(Cc1cc(F)cc(F)c1)C(O)CNC1(c2cccc(Br)c2)CCC2(CC1)OCCO2 (stereo not shown) [Example 196A-47, N-[3-[8-(3-Bromo-phenyl)-1,4-dioxa-spiro[4.5]dec-8-ylamino]-1-(3,5-difluoro-benzyl)-2-hydroxy-propyl]-acetamide] | 1.7 |
| CC(=O)NC1CCC(NCC(O)C(Cc2cc(F)cc(F)c2)NC(C)=O)(c2cccc(C(C)(C)C)c2)CC1 (single isomer, unassigned) [196A-33 Diastereomer A, N-[3-[4-Acetylamino-1-(3-tert-butyl-phenyl)-cyclohexylamino]-1-(3,5-difluoro-benzyl)-2-hydroxy-propyl]-acetamide] | 34.4 |
| CC(=O)NC(Cc1cccc(F)c1)C(O)CNC1(c2cccc(C(C)C)c2)CCCCC1 (stereo not shown) [Example 196A-4, N-{1-(3-Fluoro-benzyl)-2-hydroxy-3-[1-(3-isopropyl-phenyl)-cyclohexylamino]-propyl}-acetamide] | 1.1 |
| CC(=O)NC(Cc1cc(F)cc(F)c1)C(O)CNC1(c2cccc(C(C)(C)C)c2)CCC(NS(C)(=O)=O)CC1 (single isomer, unassigned) [196A-42 Diastereomer B, N-(4-(1-(3-tert-butylphenyl)-4-(methylsulfonamido)cyclohexylamino)-1-(3,5-difluorophenyl)-3-hydroxybutan-2-yl)acetamide] | >3.0 |
| CC(=O)NC(Cc1cc(F)cc(F)c1)C(O)CNC1(c2cccc(C(C)(C)C)c2)CCC([S+](C)[O-])CC1 (stereo not shown) [196A-34 Mix, N-(4-(1-(3-tert-butylphenyl)-4-(methylsulfinyl)cyclohexylamino)-1-(3,5-difluorophenyl)-3-hydroxybutan-2yl)acetamide] | 2.1 |
| CC(=O)NC(Cc1cc(F)cc(F)c1)C(O)CNC1(c2cccc(C(C)C)c2)CCN(C(=O)C(F)(F)F)CC1 (stereo not shown) [Example 196A-12, N-{1-(3,5-Difluoro-benzyl)-2-hydroxy-3-[4-(3-isopropyl-phenyl)-1-(2,2,2-trifluoro-acetyl)-piperidin-4-ylamino]-propyl}-acetamide] | 1.1 |
| COC(=O)NC1CCC(NCC(O)C(Cc2cc(F)cc(F)c2)NC(C)=O)(c2cccc(C(C)(C)C)c2)CC1 (single isomer, unassigned) [196A-37 Diastereomer A, methyl 4-(3-acetamido-4-(3,5-difluorophenyl)-2-hydroxybutylamino)-4-(3-tert-butylphenyl)cyclohexylcarbamate] | 7.7 |
| CC(=O)NC(Cc1cc(F)cc(F)c1)C(O)CNC1(c2cccc(C(C)(C)C)c2)CCC(N)CC1 (single isomer, unassigned) [196A-30 Diastereomer B, N-(4-(1-(3-tert-butylphenyl)-4-aminocyclohexylamino)-1-(3,5-difluorophenyl)-3-hydroxybutan-2-yl)acetamide] | >8.4 |

Source: patent US20060014790A1, “Methods of treatment of amyloidosis using spirocyclohexane aspartyl-protease inhibitors” (priority 2004, published 2006)
